Measurements: patent US20240382590A1, “NOVEL TUMOR-SPECIFIC ANTIGENS FOR CANCER STEM CELLS AND USES THEREOF” (UNIVERSITÉ DE MONTRÉAL, priority 2021, published 2024)
Entries after “also recorded” stand apart in the source; their conditions may differ.

Tests used:
CD8+ T cells [1] = experiment: FEST assay (functional expansion of specific T cells, TCR Vβ CDR3 sequencing); type: cell-based, human; settings: for Number of TCRβ clonotypes specifically expanded: FEST assay, donor D12, stimulation with a single peptide or a pool; for TCRß clonotype (TCRß CDR3 sequence) amplified: Table 3B, in vitro stimulation with peptide alone or pool, donor D12
Method: In vitro peptide-specific T cell expansion. Peptide-specific CD8^+ T cells from 4 healthy donors were expanded in vitro (D11, D12, D13, and D14). The expanded cells from D12 were used for FEST and tetramer staining assays, whereas the expanded cells from D11, D13, and D14 were used only for tetramer staining assays.
T cells were cultured as previously described, with minor modifications (Danilova et al., 2018). Briefly, on day 0, thawed PBMCs from each healthy donor (BioIVT) were T cell-enriched using the Human Pan T cell isolation kit (Miltenyi Biotec). T cells were resuspended at 2×10^6/mL in AIM V media supplemented with 50 μg/mL gentamicin (ThermoFisher Scientific) and 1% HEPES. The T cell-negative fraction was irradiated at 30 Gy, washed, and resuspended at 2×10^6/mL in AIM V media supplemented with 50 μg/mL gentamicin and 1% HEPES. 2.5 ml per well of both T cells and irradiated T cell-depleted cells were added to a 6-well plate, along with either a peptide alone, a peptide pool (up to 6 MAPs per pool, 1 μg/mL final concentration for each MAP) or without peptide. Cells were cultured for 10 days at 37° C., 5% CO2. On day 3 and 7, half the culture media was replaced with fresh culture media containing 100 IU/mL IL-2, 50 ng/mL IL-7, and 50 ng/mL IL-15 (day 3) and 200 IU/mL IL-2, 50 ng/mL IL-7, and 50 ng/mL IL-15 (day 7). On day 10, thawed PBMCs from the same donor were used to generate a new batch of T cell-depleted cells. These cells were irradiated at 30 Gy and added to cultures at a 1:1 T cell:non-T cell ratio, along with 1 μg/mL of relevant peptide(s) or without peptide. On day 13 and 17, at least half the culture media was replaced with fresh culture media (final concentrations: 100 IU/mL IL-2, 25 ng/mL IL-7, and 25 ng/mL IL-15). On day 20, cells were harvested to perform tetramer staining and/or FEST assays.
FEST assays. For FEST assays, CD8^+ cells were further isolated using the Human CD8^+ T Cell Isolation Kit (Miltenyi Biotec). As a negative control, CD8^+ T cells were also isolated from freshly thawed uncultured PBMCs of the same healthy donor. DNA was extracted from CD8^+ T cells using a QIAGEN DNA blood mini kit (QIAGEN). TCR Vβ CDR3 sequencing was performed using the survey resolution of the immunoSEQ platform (Adaptive Biotechnologies). Raw data exported from the immunoSEQ portal were processed with the FEST web tool (www.stat-apps.onc.jhmi.edu/FEST).
Given that paMAPs are appealing targets for immunotherapy, their immunogenicity was tested using in vitro T cell assays with peripheral blood mononuclear cells (PBMCs) from healthy donors. paMAPs were prioritized based on four criteria: i) the immunogenicity score predicted by Repitope, a machine learning algorithm that uses public T-cell receptor (TCR) databases to predict a probability of T cell response (Ogishi and Yotsuyanagi, 2019), ii) the HLA allotype presenting the paMAP (HLAA*02:01 or HLA-B*53:01 shared by the iPSCs and PBMCs donors), iii) expression in minimum 10% of the samples in at least one TOGA cancer type (FIG. 3), and iv) novel MAP status. The […] T cell response against 11 paMAPs was tested using peptide-HLA tetramer staining and/or more sensitive functional expansion of specific T cells (FEST) assays (Danilova et al., 2018). In FEST assays, TCR sequencing is performed on T cells stimulated or not with synthetic paMAPs. T cells were stimulated in vitro with autologous T cell-depleted PBMCs pulsed with individual or pooled (n=5 or 6) paMAPs (Tables 3A-B).

CD8+ T cells [2] = experiment: Peptide-HLA tetramer staining after in vitro peptide-specific T cell expansion; type: cell-based, human; settings: healthy donor PBMCs after 20 days in vitro stimulation
Method: T cells were resuspended at 2×10^6/mL in AIM V media supplemented with 50 μg/mL gentamicin (ThermoFisher Scientific) and 1% HEPES. […] Cells were cultured for 10 days at 37° C., 5% CO2. On day 3 and 7, half the culture media was replaced with fresh culture media containing 100 IU/mL IL-2, 50 ng/mL IL-7, and 50 ng/mL IL-15 (day 3) and 200 IU/mL IL-2, 50 ng/mL IL-7, and 50 ng/mL IL-15 (day 7). On day 10, thawed PBMCs from the same donor were used to generate a new batch of T cell-depleted cells.

cytolytic T lymphocytes = settings: MAGEA4-derived paMAPs; cited from earlier work
iPSCs [3] = experiment: MS-based identification of MHC I-associated peptides from iPSCs; set-up: species or system human; settings: 40 ng/mL IFN-γ, 72 h
Method: hiPSC22 cells derived from adult human skin fibroblasts using defective polycistronic retroviruses expressing OCT4, SOX2, KLF4, and c-MYC were obtained from Takara Bio (Cellartis human iPS cell line 22). hiPSC22 cells were cultured in the Cellartis® DEF-CS™ 500 Basal Medium with Additives (Takara Bio) on coated (Cellartis DEF-CS 500 COAT-1, Takara Bio) cell culture vessels according to the manufacturer's instructions. Fibro-iPSC.1 and Fibro-iPSC.2 cells are biological replicates of the same iPS cell line reprogrammed from adult human dermal fibroblasts using lentiviruses expressing OCT4, SOX2, NANOG, and LIN28, as per (Hong et al., 2011), and were provided by Dr. Mick Bathia (McMaster University, Ontario, Canada). Fibro-iPSC.1 and Fibro-iPSC.2 were cultured on Matrigel® (Corning, diluted in DMEM/F-12 from Gibco)-coated cell culture vessels in mTeSR1 medium ([…]), according to the manufacturer's instructions. All iPSCs were passaged using the Gentle Cell Dissociation Reagent ([…]) or were dissociated to single cells using TrypLE Express (Gibco) and washed with DPBS (Gibco) for downstream analyses. After removing 3-5×10^6 iPSCs for RNA-seq and 5×10^6 cells for flow cytometry, iPSCs were pelleted and stored at −80 degrees C. until MS analysis. […]

iPSCs [4] = experiment: Flow cytometry of surface HLA-A,B,C (QIFIKIT) and pluripotency markers on IFN-γ-treated iPSCs; type: cell-based, human; settings: 40 ng/mL IFN-γ, 72 h
Method: hiPSC22 cells derived from adult human skin fibroblasts using defective polycistronic retroviruses expressing OCT4, SOX2, KLF4, and c-MYC were obtained from Takara Bio (Cellartis human iPS cell line 22). hiPSC22 cells were cultured in the Cellartis® DEF-CS™ 500 Basal Medium with Additives (Takara Bio) on coated (Cellartis DEF-CS 500 COAT-1, Takara Bio) cell culture vessels according to the manufacturer's instructions. Fibro-iPSC.1 and Fibro-iPSC.2 cells are biological replicates of the same iPS cell line reprogrammed from adult human dermal fibroblasts using lentiviruses expressing OCT4, SOX2, NANOG, and LIN28, as per (Hong et al., 2011), and were provided by Dr. Mick Bathia (McMaster University, Ontario, Canada). […]
Single-cell suspensions were stained with PerCP-Cy5.5 Mouse anti-Oct3/4, PE Mouse anti-SSEA-1, Alexa Fluor 647 Mouse anti-SSEA-4 antibodies or the respective isotypes (Human and Mouse Pluripotent Stem Cell Analysis Kit, BD Biosciences), APC/Cyanine7 anti-human/mouse SSEA-3 (BioLegend) or the APC-Cy™7 Rat IgM, K Isotype Control (BD Biosciences) according to the manufacturers' instructions. Surface HLA-A,B,C molecules were quantified using a QIFIKIT (FITC conjugate, Agilent Dako) as per the manufacturer's instructions. Flow cytometry experiments were performed on a ZE5 (Bio-Rad), and data were analyzed using the FlowJo software. […]

ALYPQPPTV (listed as Homo sapiens) [paMAP]
Number of TCRβ clonotypes specifically expanded (CD8+ T cells [1]): two to four
TCRß clonotype (TCRß CDR3 sequence) amplified (CD8+ T cells [1]; listed as pa_11): CASSYRTGSAEAFF (SEQ ID NO: 77); also recorded: CASSLGGAYEQYF (SEQ ID NO: 78); also recorded: CASSYPQGGEQFF (SEQ ID NO: 79); also recorded: CATSRGTGVNTEAFF (SEQ ID NO: 80)

FLLPGVLLSEA (listed as Homo sapiens) [previously reported saMAP from UGT3A2]
T-cell response (immunogenicity) by peptide-HLA tetramer staining (CD8+ T cells [2]): immunogenic in one donor

GVYDGREHTV (listed as Homo sapiens) [previously reported paMAP derived from MAGEA4]
Immunogenic in previous studies (cytolytic T lymphocytes): immunogenic in previous studies

IFN-γ: recombinant human IFN-γ (Gibco) used to raise MHC I on iPSCs
More unique MAPs detected than for untreated iPSCs (iPSCs [3]): 1.8-4.5 fold
Increase in surface HLA-A/B/C levels (iPSCs [4]; average of three fibroblast-derived iPSC samples): 34 fold
Expression of canonical pluripotency markers (iPSCs [4]; iPSCs): without affecting the expression of canonical pluripotency markers

KLAQIIRQV (listed as Homo sapiens) [paMAP]
T-cell response (immunogenicity) by peptide-HLA tetramer staining (CD8+ T cells [2]): one out of four donors

KVLEHVVRV (listed as Homo sapiens) [previously reported paMAP derived from MAGEA4]
Immunogenic in previous studies (cytolytic T lymphocytes): immunogenic in previous studies

LPMWKALLF (listed as Homo sapiens) [paMAP]
Number of TCRβ clonotypes specifically expanded (CD8+ T cells [1]): two to four
TCRß clonotype (TCRß CDR3 sequence) amplified (CD8+ T cells [1]; listed as pa_06): CASSGPGDQPQHF (SEQ ID NO: 83); also recorded: CASSEWGSRAGGGDTQYF (SEQ ID NO: 84)

SLLGSSEILEV (listed as Homo sapiens) [paMAP]
Number of TCRβ clonotypes specifically expanded (CD8+ T cells [1]): two to four
TCRß clonotype (TCRß CDR3 sequence) amplified (CD8+ T cells [1]; listed as pa_12): CASSSRTDTYSPLHF (SEQ ID NO: 81); also recorded: CASSLGRWNSPLHF (SEQ ID NO: 82)
T-cell response (immunogenicity) by peptide-HLA tetramer staining (CD8+ T cells [2]): one out of four donors

VTLSTYFHV (listed as Homo sapiens) [paMAP]
Number of TCRβ clonotypes specifically expanded (CD8+ T cells [1]): two to four
TCRß clonotype (TCRß CDR3 sequence) amplified (CD8+ T cells [1]; listed as pa_10): CASSKWGSYGYTF (SEQ ID NO: 75); also recorded: CASSLPDTTYEQYF (SEQ ID NO: 76)
